Patent US10538555B2, “Macrocyclic inhibitors of the PD-1/PD-L1 and CD80(B7-1)/PD-L1 protein/protein interactions” (BRISTOL-MYERS SQUIBB COMPANY, priority 2014, dated 2020)
pIC50: −log10 of the molar value. Where a SMILES comes first, the peptide text is derived from it. Bridges are numbered along the chain shown (N, C = ends). [ ]: non-standard residue; d: D form. ξ: configuration not given here. Trp(βS-Me) = C[C@@H](c1c[nH]c2ccccc12)[C@H](N)C(=O)O; Hyp = O=C(O)[C@@H]1C[C@@H](O)CN1; NMeF = CN[C@@H](Cc1ccccc1)C(=O)O; NMeNle = CCCC[C@H](NC)C(=O)O; hSer = N[C@@H](CCO)C(=O)O; NMeA = CN[C@@H](C)C(=O)O; Orn = NCCC[C@H](N)C(=O)O; Dap = NC[C@H](N)C(=O)O; ξC = NC(CS)C(=O)O; Sar = CNCC(=O)O

biological target: T1, Human PD-L1/PD-1 (Homo sapiens, UniProt Q9NZQ7); experiment: HTRF Human PD-L1/PD-1 binding assay (PD-1-Ig/PD-L1-His); conditions: PD-L1-His 10 nM, PD-1-Ig 20 nM; class symbol; read-out: HTRF Human PD-L1/PD-1 Binding Assay IC50 Range
T1 construct: TVMV protease cleavage site (C); made in house; host or cells: HEK293T cells
In short: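 HTRF read-out (665/620 nm ratio) after 30 min equilibration with Eu-cryptate anti-Ig mAb (1 nM) and APC anti-His mAb (20 nM). Peptides preincubated 15 min with PD-L1-His (10 nM), then PD-1-Ig (20 nM) added for 15 min.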

T1 sequence (Q9NZQ7 with tags, fused parts or gaps): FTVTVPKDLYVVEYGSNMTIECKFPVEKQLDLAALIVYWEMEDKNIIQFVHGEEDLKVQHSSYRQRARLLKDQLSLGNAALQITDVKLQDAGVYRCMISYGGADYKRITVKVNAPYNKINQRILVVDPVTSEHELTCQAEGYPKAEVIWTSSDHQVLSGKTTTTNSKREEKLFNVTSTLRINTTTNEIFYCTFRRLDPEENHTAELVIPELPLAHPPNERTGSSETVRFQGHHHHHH

| pIC50 | Compound |
| --- | --- |
| 5.00 to 6.00 | CCCC[C@H]1C(=O)N[C@@H](CC(N)=O)C(=O)N2CCC[C@H]2C(=O)N[C@@H](CO)C(=O)N[C@@H](CCO)C(=O)N2CCC[C@H]2C(=O)N[C@@H](Cc2c[nH]c3ccccc23)C(=O)N[C@@H](CO)C(=O)N[C@@H](Cc2c[nH]c3ccccc23)C(=O)N(C)[C@@H](C)C(=O)N(C)[C@@H](C)C(=O)N[C@@H](CCCCN)C(=O)NC(C(=O)NCC(N)=O)CSCC(=O)N[C@@H](Cc2ccc(O)cc2)C(=O)N1C (stereo partly shown) [Example 10208] ({CH2CO}-Y[NMeNle]NPS[hSer]PWSW[NMeA][NMeA]K[ξC]G-NH2; thioether N-14) |
| 5.00 to 6.00 | CCCC[C@H]1C(=O)N[C@@H](CC(N)=O)C(=O)N2CCC[C@H]2C(=O)N[C@@H](CO)C(=O)N[C@@H](CCO)C(=O)N2CCC[C@H]2C(=O)N[C@@H](Cc2c[nH]c3ccccc23)C(=O)N[C@@H](CO)C(=O)N[C@@H](Cc2c[nH]c3ccccc23)C(=O)N(C)[C@@H](C)C(=O)N(C)[C@@H](C)C(=O)N[C@@H](CCC(=O)O)C(=O)NC(C(=O)NCC(N)=O)CSCC(=O)N[C@@H](Cc2ccc(O)cc2)C(=O)N1C (stereo partly shown) [Example 10209] ({CH2CO}-Y[NMeNle]NPS[hSer]PWSW[NMeA][NMeA]E[ξC]G-NH2; thioether N-14) |
| 5.00 to 6.00 | CCCC[C@H]1C(=O)N[C@@H](CC(N)=O)C(=O)N2CCC[C@H]2C(=O)N[C@@H](CO)C(=O)N[C@@H](CCO)C(=O)N2CCC[C@H]2C(=O)N[C@@H](Cc2c[nH]c3ccccc23)C(=O)N[C@@H](CO)C(=O)N[C@@H](Cc2c[nH]c3ccccc23)C(=O)N(C)[C@@H](C)C(=O)N(C)[C@@H](C)C(=O)N[C@@H](CCCN)C(=O)NC(C(=O)NCC(N)=O)CSCC(=O)N[C@@H](Cc2ccc(O)cc2)C(=O)N1C (stereo partly shown) [Example 10210] ({CH2CO}-Y[NMeNle]NPS[hSer]PWSW[NMeA][NMeA][Orn][ξC]G-NH2; thioether N-14) |
| 5.00 to 6.00 | CCCC[C@H]1C(=O)N[C@@H](CC(N)=O)C(=O)N2CCC[C@H]2C(=O)N[C@@H](CO)C(=O)N[C@@H](CCO)C(=O)N2C[C@H](O)C[C@H]2C(=O)N[C@@H](Cc2c[nH]c3ccccc23)C(=O)N[C@@H](CO)C(=O)N[C@@H](Cc2c[nH]c3ccccc23)C(=O)N(C)[C@@H](C)C(=O)N(C)[C@@H](C)C(=O)N[C@@H](CCCCN)C(=O)NC(C(=O)NCC(N)=O)CSCC(=O)N[C@@H](Cc2ccc(O)cc2)C(=O)N1C (stereo partly shown) [Example 10211] ({CH2CO}-Y[NMeNle]NPS[hSer][Hyp]WSW[NMeA][NMeA]K[ξC]G-NH2; thioether N-14) |
| 5.00 to 6.00 | CCCC[C@H]1C(=O)N[C@@H](CC(N)=O)C(=O)N2CCC[C@H]2C(=O)N[C@@H](CO)C(=O)N[C@@H](CCO)C(=O)N2C[C@H](O)C[C@H]2C(=O)N[C@@H](Cc2c[nH]c3ccccc23)C(=O)N[C@@H](CO)C(=O)N[C@@H](Cc2c[nH]c3ccccc23)C(=O)N(C)[C@@H](C)C(=O)N(C)[C@@H](C)C(=O)N[C@@H](CCC(=O)O)C(=O)NC(C(=O)NCC(N)=O)CSCC(=O)N[C@@H](Cc2ccc(O)cc2)C(=O)N1C (stereo partly shown) [Example 10212] ({CH2CO}-Y[NMeNle]NPS[hSer][Hyp]WSW[NMeA][NMeA]E[ξC]G-NH2; thioether N-14) |
| 5.00 to 6.00 | CCCC[C@H]1C(=O)N[C@@H](CC(N)=O)C(=O)N2CCC[C@H]2C(=O)N[C@@H](CO)C(=O)N[C@@H](CCO)C(=O)N2C[C@H](O)C[C@H]2C(=O)N[C@@H](Cc2c[nH]c3ccccc23)C(=O)N[C@@H](CO)C(=O)N[C@@H](Cc2c[nH]c3ccccc23)C(=O)N(C)[C@@H](C)C(=O)N(C)[C@@H](C)C(=O)N[C@@H](CCCN)C(=O)NC(C(=O)NCC(N)=O)CSCC(=O)N[C@@H](Cc2ccc(O)cc2)C(=O)N1C (stereo partly shown) [Example 10213] ({CH2CO}-Y[NMeNle]NPS[hSer][Hyp]WSW[NMeA][NMeA][Orn][ξC]G-NH2; thioether N-14) |
| 5.00 to 6.00 | CCCC[C@H]1C(=O)N[C@@H](CC(N)=O)C(=O)N2CCC[C@H]2C(=O)N[C@@H](CO)C(=O)N[C@@H](CCO)C(=O)N2CCC[C@H]2C(=O)N[C@@H](Cc2c[nH]c3ccccc23)C(=O)N[C@@H](CCO)C(=O)N[C@@H](Cc2c[nH]c3ccccc23)C(=O)N(C)[C@@H](C)C(=O)N(C)[C@@H](C)C(=O)N[C@@H](CCCCN)C(=O)NC(C(=O)NCC(N)=O)CSCC(=O)N[C@@H](Cc2ccc(O)cc2)C(=O)N1C (stereo partly shown) [Example 10214] ({CH2CO}-Y[NMeNle]NPS[hSer]PW[hSer]W[NMeA][NMeA]K[ξC]G-NH2; thioether N-14) |
| 5.00 to 6.00 | CCCC[C@H]1C(=O)N[C@@H](CC(N)=O)C(=O)N2CCC[C@H]2C(=O)N[C@@H](CO)C(=O)N[C@@H](CCO)C(=O)N2CCC[C@H]2C(=O)N[C@@H](Cc2c[nH]c3ccccc23)C(=O)N[C@@H](CCO)C(=O)N[C@@H](Cc2c[nH]c3ccccc23)C(=O)N(C)[C@@H](C)C(=O)N(C)[C@@H](C)C(=O)N[C@@H](CCC(=O)O)C(=O)NC(C(=O)NCC(N)=O)CSCC(=O)N[C@@H](Cc2ccc(O)cc2)C(=O)N1C (stereo partly shown) [Example 10215] ({CH2CO}-Y[NMeNle]NPS[hSer]PW[hSer]W[NMeA][NMeA]E[ξC]G-NH2; thioether N-14) |
| 5.00 to 6.00 | CCCC[C@H]1C(=O)N[C@@H](CC(N)=O)C(=O)N2CCC[C@H]2C(=O)N[C@@H](CO)C(=O)N[C@@H](CCO)C(=O)N2CCC[C@H]2C(=O)N[C@@H](Cc2c[nH]c3ccccc23)C(=O)N[C@@H](CCO)C(=O)N[C@@H](Cc2c[nH]c3ccccc23)C(=O)N(C)[C@@H](C)C(=O)N(C)[C@@H](C)C(=O)N[C@@H](CCCN)C(=O)NC(C(=O)NCC(N)=O)CSCC(=O)N[C@@H](Cc2ccc(O)cc2)C(=O)N1C (stereo partly shown) [Example 10216] ({CH2CO}-Y[NMeNle]NPS[hSer]PW[hSer]W[NMeA][NMeA][Orn][ξC]G-NH2; thioether N-14) |
| 5.00 to 6.00 | CCCC[C@H]1C(=O)N[C@@H](CC(N)=O)C(=O)N2CCC[C@H]2C(=O)N[C@@H](CO)C(=O)N[C@@H](CCO)C(=O)N2C[C@H](O)C[C@H]2C(=O)N[C@@H](Cc2c[nH]c3ccccc23)C(=O)N[C@@H](CCO)C(=O)N[C@@H](Cc2c[nH]c3ccccc23)C(=O)N(C)[C@@H](C)C(=O)N(C)[C@@H](C)C(=O)N[C@@H](CCCCN)C(=O)NC(C(=O)NCC(N)=O)CSCC(=O)N[C@@H](Cc2ccc(O)cc2)C(=O)N1C (stereo partly shown) [Example 10217] ({CH2CO}-Y[NMeNle]NPS[hSer][Hyp]W[hSer]W[NMeA][NMeA]K[ξC]G-NH2; thioether N-14) |
| 5.00 to 6.00 | CCCC[C@H]1C(=O)N[C@@H](CC(N)=O)C(=O)N2CCC[C@H]2C(=O)N[C@@H](CO)C(=O)N[C@@H](CCO)C(=O)N2C[C@H](O)C[C@H]2C(=O)N[C@@H](Cc2c[nH]c3ccccc23)C(=O)N[C@@H](CCO)C(=O)N[C@@H](Cc2c[nH]c3ccccc23)C(=O)N(C)[C@@H](C)C(=O)N(C)[C@@H](C)C(=O)N[C@@H](CCC(=O)O)C(=O)NC(C(=O)NCC(N)=O)CSCC(=O)N[C@@H](Cc2ccc(O)cc2)C(=O)N1C (stereo partly shown) [Example 10218] ({CH2CO}-Y[NMeNle]NPS[hSer][Hyp]W[hSer]W[NMeA][NMeA]E[ξC]G-NH2; thioether N-14) |
| 5.00 to 6.00 | CCCC[C@H]1C(=O)N[C@@H](CC(N)=O)C(=O)N2CCC[C@H]2C(=O)N[C@@H](CO)C(=O)N[C@@H](CCO)C(=O)N2C[C@H](O)C[C@H]2C(=O)N[C@@H](Cc2c[nH]c3ccccc23)C(=O)N[C@@H](CCO)C(=O)N[C@@H](Cc2c[nH]c3ccccc23)C(=O)N(C)[C@@H](C)C(=O)N(C)[C@@H](C)C(=O)N[C@@H](CCCN)C(=O)NC(C(=O)NCC(N)=O)CSCC(=O)N[C@@H](Cc2ccc(O)cc2)C(=O)N1C (stereo partly shown) [Example 10219] ({CH2CO}-Y[NMeNle]NPS[hSer][Hyp]W[hSer]W[NMeA][NMeA][Orn][ξC]G-NH2; thioether N-14) |
| 8.00 to 9.00 | CCCC[C@H]1C(=O)N(C)[C@@H](CCCC)C(=O)N[C@@H](CCCNC(=N)N)C(=O)N[C@H](C(N)=O)CSCC(=O)N[C@@H](Cc2ccc(O)cc2)C(=O)N(C)[C@@H](C)C(=O)N[C@@H](CC(N)=O)C(=O)N2CCC[C@H]2C(=O)N[C@@H](CC(N)=O)C(=O)N[C@@H](CC(C)C)C(=O)N2C[C@H](O)C[C@H]2C(=O)N[C@@H]([C@@H](C)c2c[nH]c3ccccc23)C(=O)N[C@@H](CO)C(=O)N[C@@H](Cc2c[nH]c3ccccc23)C(=O)N1C [Example 10531] ({CH2CO}-Y[NMeA]NPNL[Hyp][Trp(βS-Me)]SW[NMeNle][NMeNle]RC-NH2; thioether N-14) |
| 8.00 to 9.00 | CCCC[C@H]1C(=O)N(C)[C@@H](CCCC)C(=O)N[C@@H](CC(C)C)C(=O)N[C@H](C(N)=O)CSCC(=O)N[C@@H](Cc2ccc(O)cc2)C(=O)N(C)[C@@H](C)C(=O)N[C@@H](CC(N)=O)C(=O)N2CCC[C@H]2C(=O)N[C@@H](CN)C(=O)N[C@@H](CC(C)C)C(=O)N2C[C@H](O)C[C@H]2C(=O)N[C@@H]([C@@H](C)c2c[nH]c3ccccc23)C(=O)N[C@@H](CO)C(=O)N[C@@H](Cc2c[nH]c3ccccc23)C(=O)N1C [Example 10532] ({CH2CO}-Y[NMeA]NP[Dap]L[Hyp][Trp(βS-Me)]SW[NMeNle][NMeNle]LC-NH2; thioether N-14) |
| 8.00 to 9.00 | CCCC[C@H]1C(=O)N(C)CC(=O)N[C@@H](CC(=O)O)C(=O)N[C@@H](C(C)C)C(=O)N(C)[C@@H](Cc2ccccc2)C(=O)N[C@@H](Cc2ccc(O)cc2)C(=O)N(C)CC(=O)N[C@@H]([C@@H](C)c2c[nH]c3ccccc23)C(=O)N[C@@H](Cc2ccc(O)cc2)C(=O)N[C@@H](CC(C)C)C(=O)N[C@H](C(=O)NCC(N)=O)CSCC(=O)N[C@@H](Cc2ccccc2)C(=O)N(C)[C@@H](Cc2ccccc2)C(=O)N1C [Example 10533] ({CH2CO}-F[NMeF][NMeNle][Sar]DV[NMeF]Y[Sar][Trp(βS-Me)]YLCG-NH2; thioether N-13) |

same assay, conditions: PD-L1-His 10 nM, PD-1-Ig 20 nM; read-out: HTRF Human PD-L1/PD-1 Binding Assay IC50

| pIC50 | Compound |
| --- | --- |
| 7.82 | CCCC[C@H]1C(=O)N(C)[C@@H](CCCC)C(=O)N[C@@H](CC(C)C)C(=O)N[C@H](C(=O)NCC(N)=O)CSCC(=O)N[C@@H](Cc2ccc(O)cc2)C(=O)N(C)[C@@H](C)C(=O)N[C@@H](CC(N)=O)C(=O)N2CCC[C@H]2C(=O)N[C@@H](CN)C(=O)N[C@@H](CC(C)C)C(=O)N2C[C@H](O)C[C@H]2C(=O)N[C@@H]([C@@H](C)c2c[nH]c3ccccc23)C(=O)N[C@@H](CO)C(=O)N[C@@H](Cc2c[nH]c3ccccc23)C(=O)N1C [Example 10530] ({CH2CO}-Y[NMeA]NP[Dap]L[Hyp][Trp(βS-Me)]SW[NMeNle][NMeNle]LCG-NH2; thioether N-14) |
